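Interpolation was linear, between the two tested concentrations surrounding the appropriate level; five concentrations were tested over 48 hours in 96-well plates. The concentration for 50% growth inhibition is given as GI50.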 Activity calls are given as the source filed them. Rule as the data show it: active = GI50 up to about 1.1 µM and inactive = higher.
Experiments:
Assay in all cases: inhibition of tumour cell growth, NCI panel, 48 h
A549 = system: A549
BT-549 = system: BT-549
CCRF-CEM = system: CCRF-CEM
HCC 2998 = system: HCC 2998
IGROV-1 = system: IGROV-1
MDA-MB-231 = system: MDA-MB-231
NCI-H226 = system: NCI-H226
NCI-H23 = system: NCI-H23
NCI-H522 = system: NCI-H522
NCI/ADR-RES = system: NCI/ADR-RES
OVCAR-4 = system: OVCAR-4
OVCAR-8 = system: OVCAR-8
PC-3 = system: PC-3
RPMI-8226 = system: RPMI-8226
SF-268 = system: SF-268
SK-OV-3 = system: SK-OV-3
T47D = system: T47D
U-251 = system: U-251
SR = system: SR

| SMILES | GI50 (A549) | GI50 (BT-549) | GI50 (CCRF-CEM) | GI50 (HCC 2998) | GI50 (IGROV-1) | GI50 (MDA-MB-231) | GI50 (NCI-H226) | GI50 (NCI-H23) | GI50 (NCI-H522) | GI50 (NCI/ADR-RES) | GI50 (OVCAR-4) | GI50 (OVCAR-8) | GI50 (PC-3) | GI50 (RPMI-8226) | GI50 (SF-268) | GI50 (SK-OV-3) | GI50 (T47D) | GI50 (U-251) | GI50 (SR) |
| --- | --- | --- | --- | --- | --- | --- | --- | --- | --- | --- | --- | --- | --- | --- | --- | --- | --- | --- | --- |
| COC(=O)c1c(C#N)c(N)nc2c1CCC2 | > 100 µM (inactive) | > 100 µM (inactive) | 99.8 µM (inactive) | > 100 µM (inactive) | > 100 µM (inactive) | > 100 µM (inactive) | > 100 µM (inactive) | > 100 µM (inactive) | > 100 µM (inactive) | > 100 µM (inactive) | 93.3 µM (inactive) | > 100 µM (inactive) | > 100 µM (inactive) | > 100 µM (inactive) | > 100 µM (inactive) | > 100 µM (inactive) | 75.5 µM (inactive) | > 100 µM (inactive) | – |
| CCOC(=O)[C@@]12NN=N[C@@H]1[C@H]1CO[C@H](c3ccccc3)N1C2=O | 16.9 µM (inactive) | 11.7 µM (inactive) | 7.1 µM (inactive) | 12.9 µM (inactive) | 5.24 µM (inactive) | 12.2 µM (inactive) | – | 12.5 µM (inactive) | 3.01 µM (inactive) | 22.1 µM (inactive) | 16.5 µM (inactive) | 5.68 µM (inactive) | 10.1 µM (inactive) | 3.24 µM (inactive) | 11 µM (inactive) | 18.2 µM (inactive) | 5.22 µM (inactive) | 4.54 µM (inactive) | – |
| N#CC(C#N)/N=C/c1ccncc1 | > 100 µM (inactive) | > 100 µM (inactive) | 28.7 µM (inactive) | > 100 µM (inactive) | > 100 µM (inactive) | > 100 µM (inactive) | > 100 µM (inactive) | > 100 µM (inactive) | – | > 100 µM (inactive) | > 100 µM (inactive) | > 100 µM (inactive) | > 100 µM (inactive) | > 100 µM (inactive) | > 100 µM (inactive) | > 100 µM (inactive) | > 100 µM (inactive) | > 100 µM (inactive) | – |
| Nc1nc(Cl)c(N)c(NCC2(CO)CC(Cc3ccccc3)C2)n1 (centres undefined) | > 75 µM (inactive) | 42.5 µM (inactive) | 23.1 µM (inactive) | > 93.5 µM (inactive) | > 78.5 µM (inactive) | 61.4 µM (inactive) | > 31.8 µM (inactive) | 0.865 µM (active) | 28.5 µM (inactive) | 15.1 µM (inactive) | 48.1 µM (inactive) | 56.9 µM (inactive) | 51.3 µM (inactive) | 2.41 µM (inactive) | > 92.9 µM (inactive) | > 100 µM (inactive) | 0.923 µM (active) | 14.6 µM (inactive) | – |
| O[C@@H]1C=C[C@]23CCN(Cc4cc5c(cc42)OCO5)[C@@H]3C1 | 46.6 µM (inactive) | > 100 µM (inactive) | 48.9 µM (inactive) | – | 44.3 µM (inactive) | 58.2 µM (inactive) | > 100 µM (inactive) | > 100 µM (inactive) | 82.4 µM (inactive) | > 100 µM (inactive) | 34 µM (inactive) | 54.1 µM (inactive) | 45.2 µM (inactive) | 50.7 µM (inactive) | > 100 µM (inactive) | > 100 µM (inactive) | 39.1 µM (inactive) | 41.2 µM (inactive) | 67.8 µM (inactive) |
| CC(=O)O[C@H]1CC[C@@H](OC(C)=O)[C@H]2[C@H](O)[C@H](O)[C@@H]1n1c(=O)n(-c3ccccc3)c(=O)n12 | > 100 µM (inactive) | > 100 µM (inactive) | > 100 µM (inactive) | – | > 100 µM (inactive) | > 100 µM (inactive) | > 100 µM (inactive) | > 100 µM (inactive) | > 100 µM (inactive) | > 100 µM (inactive) | > 100 µM (inactive) | > 100 µM (inactive) | > 100 µM (inactive) | > 100 µM (inactive) | > 100 µM (inactive) | – | > 100 µM (inactive) | > 100 µM (inactive) | – |
| C#C[C@]1(O)CC[C@H]2[C@@H]3CCC4=C/C(=N/CCOC(=O)c5cccc6c(=O)c7ccccc7[nH]c56)CC[C@@H]4[C@H]3CC[C@@]21C | 41.7 µM (inactive) | 32.3 µM (inactive) | 35.7 µM (inactive) | – | 29.5 µM (inactive) | 15.7 µM (inactive) | 76.2 µM (inactive) | 32.7 µM (inactive) | 31.4 µM (inactive) | 40.9 µM (inactive) | 32.7 µM (inactive) | 21 µM (inactive) | 18.4 µM (inactive) | – | 53.6 µM (inactive) | 51.5 µM (inactive) | 20.5 µM (inactive) | 16.4 µM (inactive) | – |
| CC(C)(C)OC(=O)N1C/C=C\C(=O)C2(OCCO2)c2ccccc21 | 35.2 µM (inactive) | 22.5 µM (inactive) | 25.4 µM (inactive) | – | 16.9 µM (inactive) | 19.6 µM (inactive) | 19.1 µM (inactive) | 36.1 µM (inactive) | 24 µM (inactive) | 47.5 µM (inactive) | 28.4 µM (inactive) | 24.9 µM (inactive) | 29.4 µM (inactive) | 20.4 µM (inactive) | 34 µM (inactive) | 37.3 µM (inactive) | 21.3 µM (inactive) | 29.9 µM (inactive) | 25.8 µM (inactive) |
| CCOC(=O)C1CCCCN1C(=O)Cc1c[nH]c2ccccc12 (centres undefined) | 55.2 µM (inactive) | 94.8 µM (inactive) | 42.5 µM (inactive) | 77.8 µM (inactive) | 57.7 µM (inactive) | 79.6 µM (inactive) | > 100 µM (inactive) | 80.2 µM (inactive) | 31.4 µM (inactive) | 69.7 µM (inactive) | 33.9 µM (inactive) | 42.4 µM (inactive) | 31.7 µM (inactive) | 20 µM (inactive) | 45.2 µM (inactive) | > 100 µM (inactive) | 37 µM (inactive) | 67.3 µM (inactive) | – |
| CC(=O)OC[C@@]1(C)[C@@H]2[C@@H]3[C@@]4(CO[C@]3(C)C(=O)[C@@]3(OC(C)=O)C[C@H](C)[C@H](OC(C)=O)[C@@H]3[C@H]4OC(C)=O)[C@H](OC(=O)c3ccccc3)C[C@@H]21 | 74.1 µM (inactive) | > 100 µM (inactive) | 32.8 µM (inactive) | > 100 µM (inactive) | > 100 µM (inactive) | > 100 µM (inactive) | > 100 µM (inactive) | > 100 µM (inactive) | > 100 µM (inactive) | > 100 µM (inactive) | > 100 µM (inactive) | > 100 µM (inactive) | 45.6 µM (inactive) | 19 µM (inactive) | > 100 µM (inactive) | > 100 µM (inactive) | 66.2 µM (inactive) | > 100 µM (inactive) | – |
| Nc1sccc1S(=O)(=O)c1ccsc1N | > 100 µM (inactive) | > 100 µM (inactive) | – | > 100 µM (inactive) | > 100 µM (inactive) | > 100 µM (inactive) | > 100 µM (inactive) | > 100 µM (inactive) | > 100 µM (inactive) | > 100 µM (inactive) | > 100 µM (inactive) | > 100 µM (inactive) | > 100 µM (inactive) | > 100 µM (inactive) | > 100 µM (inactive) | > 100 µM (inactive) | > 100 µM (inactive) | > 100 µM (inactive) | – |
| CCNCC(O)COc1ccc2c(c1)[n+]([O-])nc(N)[n+]2[O-] (centres undefined) | 24.2 µM (inactive) | > 100 µM (inactive) | 19 µM (inactive) | – | 36.3 µM (inactive) | > 100 µM (inactive) | 59.2 µM (inactive) | 47.4 µM (inactive) | 12.6 µM (inactive) | > 100 µM (inactive) | 37.2 µM (inactive) | 56 µM (inactive) | 24.7 µM (inactive) | 61.9 µM (inactive) | 31.3 µM (inactive) | 10.6 µM (inactive) | 81.8 µM (inactive) | 42.7 µM (inactive) | 45.5 µM (inactive) |
| C1CSC[C@H]2COC[C@@H](CSCCS1)S2 | > 100 µM (inactive) | > 100 µM (inactive) | > 100 µM (inactive) | > 100 µM (inactive) | – | > 100 µM (inactive) | – | > 100 µM (inactive) | > 100 µM (inactive) | > 100 µM (inactive) | > 100 µM (inactive) | > 100 µM (inactive) | > 100 µM (inactive) | – | > 100 µM (inactive) | – | > 100 µM (inactive) | > 100 µM (inactive) | > 100 µM (inactive) |
| CC(C)CCC[C@@H](C)C1CCC2[C@@H]3CCC4C[C@@H](NS(C)(=O)=O)CC[C@]4(C)C3CC[C@@]21C (some centres undefined) | > 100 µM (inactive) | > 100 µM (inactive) | > 100 µM (inactive) | – | > 100 µM (inactive) | > 100 µM (inactive) | > 100 µM (inactive) | > 100 µM (inactive) | > 100 µM (inactive) | > 100 µM (inactive) | > 100 µM (inactive) | > 100 µM (inactive) | > 100 µM (inactive) | > 100 µM (inactive) | > 100 µM (inactive) | > 100 µM (inactive) | > 100 µM (inactive) | > 100 µM (inactive) | > 100 µM (inactive) |
| C=C(C)[C@H]1CC23C(=O)C(C(=O)C(C)C)=C(O)[C@](C)(C[C@H]2C1(C)C)C3=O [LALIBINONE B] | 20.3 µM (inactive) | 17.5 µM (inactive) | 8.3 µM (inactive) | – | 12.5 µM (inactive) | 15.6 µM (inactive) | 16.2 µM (inactive) | 18.9 µM (inactive) | 16.5 µM (inactive) | 13.1 µM (inactive) | 12.6 µM (inactive) | 17.9 µM (inactive) | 12.6 µM (inactive) | 12.8 µM (inactive) | 18.1 µM (inactive) | – | 30.9 µM (inactive) | 19.1 µM (inactive) | 14.5 µM (inactive) |

From ChEMBL document CHEMBL1201862, “PubChem BioAssay data set” (2004)
